We go through 1 substance from article PMC11393453, “Phosphorylation of tau at a single residue inhibits binding to the E3 ubiquitin ligase, CHIP” (Nature Communications, 2024).

One assay relates to endogenous CHIP. The experiment in a line: Co-immunoprecipitation of endogenous CHIP with GFP-tau proteoforms. Particulars: Fig 3E. Type of assay: cell-based. As to the method: (§1) Fig. 3 TauC3 Ser416 phosphorylation regulates CHIP-dependent tau homeostasis. A In vitro ubiquitination of tau proteoforms by CHIP. Samples were collected at the denoted timepoints, quenched in SDS-PAGE loading buffer, and analyzed by western blot. B Quantification of unmodified tau remaining following in vitro ubiquitination of varying tau proteoforms by CHIP. Unmodified tau remaining was analyzed by densitometry, normalized to 0-min time point, and curves were fit using one-phase exponential decay (n = 3 technical replicates). C Cartoon schematic depicting promoter architecture and varying C-terminal sequences for HEK293 FlpIn T-Rex cells expressing doxycycline inducible GFP-tau proteoforms. D Representative fluorescence micrographs for GFP-tau cells. Images show tau species associated with microtubules (green, false color), while nuclei are stained with Hoechst 33342 (blue, false color). Scale bar = 30 µm. Images are representative of three separate acquisitions. E Co-immunoprecipitation assay following IP of varying tau species from cells. Whole cell lysate (input) was used for loading controls, and co-immunoprecipitated CHIP was analyzed by western blot. Experiment was repeated in duplicate. F Representative western blot showing differing abundance of various tau proteoforms in HEK293 FlpIn T-Rex cells. Experiment was repeated in duplicate. G Quantification of tau protein abundance taken from three independent biological experiments. Tau:tubulin ratio was determined by densitometry and normalized to full-length tau. Error bars represent SD. Statistical significance was determined by one-way ANOVA with Tukey’s post hoc analysis. H Quantification of MAPT mRNA from three independent biological experiments. MAPT mRNA was normalized to GAPDH and shown relative to full-length tau. Error bars represent SD. Statistical significance was determined by one-way ANOVA with Tukey’s post hoc analysis.
Cells were washed once in 1X Dulbecco’s Phosphate Buffered Saline (D-PBS) and lysed in ice cold Pierce Immunoprecipitation (IP) lysis buffer (25 mM Tris-HCl pH 7.4, 150 mM NaCl, 1 mM EDTA, 1% NP-40). Lysates were collected by scraping, transferred to 1.5 mL microcentrifuge tubes, and incubated on ice for 15 min. […] Relative protein concentrations were determined by bicinchoninic acid assay (Pierce), and samples were normalized to the lowest protein concentration. […]
For tau immunoprecipitations, an aliquot (30 µL) of Protein A/G PLUS-agarose (Santa Cruz Biotech) per condition was collected and washed twice in ice cold IP lysis buffer. […] Inputs and eluates were subsequently analyzed by SDS-PAGE followed by western blotting. Quantification was performed by densitometry analysis in ImageJ (NIH).

The next assay concerns HEK293 FlpIn T-Rex cells. The assay can be described thus: Tau protein abundance by western blot (tau:tubulin). Particulars: Fig 3G; for normalized tau:tubulin ratios: normalized to full-length tau. Type of assay: cell-based. As to the method:
as §1
Construction of the stable dox-inducible HEK 293 eGFP-tau reporter cell lines was performed as described. In brief, parent HEK 293 Flp-In T-REx cells were harvested by trypsinization, resuspended in electroporation buffer containing 5 µg eGFP-tau plasmid DNA and 45 µg pOG44 plasmid DNA. Cells were electroporated using program Q-001 on a Lonza 4D-Nucleofector. Electroporated cells were immediately diluted in 10% FBS-DMEM and cultured for 48 h to recover. Following recovery, cells were selected with 100 µg/mL hygromycin until single colonies arose. Colonies were subsequently picked and screened for dox-inducible expression of eGFP-tau by fluorescence microscopy (Echo Revolve) and western blotting.
Prepared samples were separated on precast 4–20% SDS-PAGE gradient gels (Bio-Rad) for 35 min at 200 V. Proteins were transferred to nitrocellulose membranes using a Trans-Blot Turbo Transfer System (Bio-Rad). Membranes were blocked in Odyssey TBS Blocking Buffer (Licor) for 1 h at room temperature and then incubated in primary antibody in 1X Tris-Buffer saline containing 0.05% Tween-20 (1X TBS-T), plus 5% non-fat dry milk powder, and 0.02% NaN3 overnight at 4 °C with rotation. The following day, membranes were washed 3 times in 1X TBS-T and then incubated in secondary antibody diluted 1:10,000 in Odyssey TBS Antibody Diluent (Licor) for 1 h at room temperature. Following incubation with secondary antibody, membranes were washed 3 times in 1X TBS-T and imaged on an Odyssey Fc Imaging System (Licor). Quantification was performed by densitometry analysis in ImageJ (NIH). Raw images, along with select quantifications, can be found in Fig. S6. […]
(A western blot detects proteins with antibodies after separation by electrophoresis.)

Take “tau: full length (FL) 0N4R splice isoform of tau, unmodified; recombinant or expressed in cells”: the CHIP/tau in the assay with endogenous CHIP (IntDen quantification, with induction) is listed as 1.597. For the same substance, the “Relative Binding” value in the assay with endogenous CHIP (IntDen quantification, with induction, relative to tauC3) turned out to be 1.645. Moreover, in the assay on endogenous CHIP (second quantification), the “CHIP/Tau normalized to tauC3” value is reported as 0.04136. The same substance displayed a CHIP/Tau in the assay on endogenous CHIP (second quantification, CHIP over total tau (D-8)) of 0.03219. The figures for the “normalized tau:tubulin ratios” value with HEK293 FlpIn T-Rex cells (replicate 1), in the assay on HEK293 FlpIn T-Rex cells (replicate 2) and with HEK293 FlpIn T-Rex cells (replicate 3) were 107.457, 93.4819 and 99.0612, respectively. The results for the “raw tau:tubulin ratios” value in the assay with HEK293 FlpIn T-Rex cells (replicate 1), with HEK293 FlpIn T-Rex cells (replicate 2) and in the assay on HEK293 FlpIn T-Rex cells (replicate 3) were 1.039, 0.9043 and 0.9582, respectively.
